One molecule from article PMC9220351, “Evaluation of a Conformationally Constrained Indole Carboxamide as a Potential Efflux Pump Inhibitor in Pseudomonas aeruginosa” (Antibiotics, 2022) can be followed below.

For this assay, the system named is P. aeruginosa ATCC 27853 inner membrane potential. Kind of assay: DiOC2 (3) membrane polarization assay. It is filed as cell-based, Pseudomonas aeruginosa. As to conditions: Pseudomonas aeruginosa, ATCC27853; read-out: IC50 (DiOC2 (3) membrane polarization, Figure 4A). How it is done:
RND efflux pumps couple the influx of protons from the proton gradient across the inner membrane to the efflux of drugs and other molecules. […] The effect of TXA09155 on the proton gradient of P. aeruginosa was assessed with a fluorescence-based 3,3′-diethyloxacarbocyanine iodide [DiOC2 (3)] assay that was developed to measure membrane potential changes in Gram-negative bacteria. DiOC2 (3) is a positively charged fluorescent dye that accumulates within cells in a charge-dependent manner, shifting its fluorescence spectrum from green to red at high concentrations due to concentration-dependent dye stacking. […] Azithromycin and CCCP were used as […] controls, respectively.
P. aeruginosa membrane polarization assays were conducted as described previously using strain ATCC 27853. […] DiOC2 (3) fluorescence was recorded in a microplate reader using 450 nm excitation and 670 nm emission (for red fluorescence). Background correction for each concentration of each compound was obtained from reading the fluorescence of compounds in the resuspension buffer without cells. After background correction, fluorescence was normalized to that of the vehicle (DMSO) only. After a 30 min incubation at 37 °C, DiOC2 (3) fluorescence was recorded using a SpectraMax iD5 spectrophotometer (Molecular Devices, San Jose, CA, USA) following excitation at 450 nm. […]

On to `N#CC(C#N)=NNc1cccc(Cl)c1` [CCCP, Carbonyl cyanide 3-chlorophenylhydrazone], for which the IC50 amounted to 0.015 µM.

Usually IC50 stands for the point on the concentration scale where inhibition reaches its midpoint.
